{
  "source": "patent US20240053368A1",
  "about": "“METHOD FOR EVALUATING BLOOD PARAMETERS” (SEDICIDODICI S.R.L., priority 2020, published 2024)",
  "key": {"[1]": {"system": "platelets (platelet aggregate formation)", "assay": "ex-vivo dynamic evaluation of the coagulation process in a whole-blood sample under flow: platelet aggregate formation", "set-up": "species or system human", "details": "mean value, blood of subjects under the therapy, 8-bit acquisition system", "description": "According to some embodiments, the method of the invention comprises the following steps: • a) providing a whole-blood sample taken from a subject and added with an anti-coagulant substance; • b) treating the blood sample of step a) with a solution consisting of fluorescent probes for marking platelets and fibrin capable of binding more or less specifically to platelets and fibrin and emitting fluorescent light on two different emission frequencies and of a recalcification solution of the blood sample. […]\n(§1) From a study carried out on healthy subjects not subjected to anticoagulant or antiplatelet therapy (controls), mean values of the parameters calculated as described above were obtained. […]"}, "[2]": {"system": "fibrin (fibrin formation)", "assay": "ex-vivo dynamic evaluation of the coagulation process in a whole-blood sample under flow: fibrin formation", "set-up": "species or system human", "details": "mean value", "description": "According to some embodiments, the method of the invention comprises the following steps: • a) providing a whole-blood sample taken from a subject and added with an anti-coagulant substance; • b) treating the blood sample of step a) with a solution consisting of fluorescent probes for marking platelets and fibrin capable of binding more or less specifically to platelets and fibrin and emitting fluorescent light on two different emission frequencies and of a recalcification solution of the blood sample. The two aforesaid solutions can also be combined in a single solution or single reagent; • c) introducing said recalcified blood sample into an analytical device having at least one perfusion chamber, in which at least one wall consists of a transparent material comprising a cytoadhesive substance, the blood sample being made to flow into the perfusion chamber in known and measurable flow conditions; • d) during the blood flow in the perfusion chamber, alternately acquiring at least two series of fluorescence images, so that at least one series of fluorescence images is acquired at an emission wavelength characteristic of the fluorescent probe for platelets and at least one other series of fluorescence images is acquired at another emission wavelength characteristic of the fluorescent probe for fibrin; • e) binarizing the pixels of the acquired images for the platelets and for the fibrin, so as to generate a first curve of area covered by illuminated pixels vs. time (t) for the formation of a platelet aggregate and a second curve of area covered by illuminated pixels vs. time for the fibrin formation; • f) generating a first curve of average fluorescence intensity vs. time for the formation of the platelet aggregate and a second curve of average fluorescence intensity vs. time for the fibrin formation; • the method further comprising at least one of the following steps: • g) generating a first integrated density curve defined as the product of area and fluorescence intensity vs. time for the formation of the platelet aggregate and a second integrated density curve defined as the product of area and fluorescence intensity vs. time for the fibrin formation; • h) generating a curve of particle number vs. time, in which the number of particles is given by the number of platelet aggregates consisting of more than 2 illuminated pixels; • i) generating a curve of particle size vs. time, in which the particle size is given by the average size of the platelet aggregates consisting of more than 2 illuminated pixels; • j) generating values of maximum slope, defined as the relative maximum points of the first derivative function calculated for the curves of the parameter obtained in one or more of steps e), f), g), h) and i); • k) generating values of maximum acceleration, defined as the relative maximum points of the second derivative function calculated for the curves of the parameter obtained in one or more of steps e), f), g), h) and i); • l) generating values of F/P ratio, defined as the ratio of the AUCs of fibrin to the AUCs of the platelets of the parameter obtained in one or more of steps e), f) and g); • the method further comprising the steps of: • m) generating a lag time value representing the fibrin formation time defined as the time corresponding to the first occurrence of five consecutive images in which the value of the measured area related to fibrin is >1% of the maximum peak value of the curve; • n) generating the AUC (Area Under the Curve) values given by the area under the curve of the parameter obtained in one or more of steps e), f), g), h) and i).\nas §1"}},
  "data": [
    {"smiles": "CC(=O)Oc1ccccc1C(=O)O", "note": "[ASA, acetylsalicylic acid]", "values": [
      {"measurement": "Platelets AUC Area", "setting": "[1]; area under the curve of the area curve", "result": "3.4 ×10^7"},
      {"measurement": "Platelets AUC MGV", "setting": "[1]; area under the curve of the fluorescence intensity curve", "result": "2.0 ×10^4"},
      {"measurement": "Platelets AUC ID", "setting": "[1]; area under the curve of the integrated density curve", "result": "3.0 ×10^9"},
      {"measurement": "F/P Area", "setting": "[2]; AUC Area ratio of fibrin to platelets, subjects under the therapy", "result": 1.0},
      {"measurement": "F/P ID", "setting": "[2]; AUC ID ratio of fibrin to platelets, subjects under the therapy", "result": 2.2},
      {"measurement": "F/P MGV", "setting": "[2]; AUC MGV ratio of fibrin to platelets, subjects under the therapy", "result": 1.2},
      {"measurement": "Fibrin AUC Area", "setting": "[2]; blood of subjects under the therapy, area under the curve of the area curve, 8-bit acquisition system", "result": "3.0 ×10^7"},
      {"measurement": "Fibrin AUC MGV", "setting": "[2]; blood of subjects under the therapy, area under the curve of the fluorescence intensity curve, 8-bit acquisition system", "result": "2.0 ×10^4"},
      {"measurement": "Fibrin AUC ID", "setting": "[2]; blood of subjects under the therapy, area under the curve of the integrated density curve, 8-bit acquisition system", "result": "4.3 ×10^9"}
    ]}
  ]
}
